According to patent US20240272164A1, “METHODS FOR CLASSIFYING TUMORS AND USES THEREFOR” (THE UNIVERSITY OF QUEENSLAND, priority 2015, published 2024):
Entries after “also recorded” stand apart in the source; their conditions may differ.

Key:
Format in all cases: cell-based
[1] = tested on: breast cancer cell lines
From the text: Dyngo4a, a small molecule inhibitor of dynamin, was used to block dynamin-mediated endocytosis (Mccluskey et al., 2013) and added into the immune-dependent cytotoxicity assays. […] However, the specific cell death of BT474 cells was not enhanced following treatment with Dyngo4a (FIG. 4C).

[2] = tested on: A431 cells; test: EGF-Alexa488 uptake and clathrin localisation, confocal and 3D-SIM super-resolution microscopy; details: for Internalization of EGF-Alexa488: 30 min drug, EGF-Alexa488 last five minutes, confocal, FIG. 7A-C; for Clathrin recruitment to the plasma membrane: 3D-SIM volume projections, FIG. 7G-I; for Effect on HER1 (EGFR) at the plasma membrane: Pitstop-2 30 μM or chlorpromazine 18 μM, 30 min
Procedure: To discuss the experiments in more detail, A431 cells were incubated in serum-free medium with no drugs (control), or with Pitstop®-2 for 30 min or chlorpromazine for 30 min. During the last five minutes of treatment EGF-Alexa488 was added to monitor CME, after which cells were fixed and imaged (FIG. 7A-C).
Volume projections of a small area of the cell periphery were used to examine the recruitment of clathrin and EGF-positive sites to the cell periphery (FIG. 7G-I). The angle of 3D projection was chosen to show the upper surface of the cell plasma membrane. Points of co-localisation between EGF-Alexa^488 and Alexa^594-conjugated antibodies (which detects clathrin) are rare in 3D-SIM due to the capture of frequency information differences between the 488 and 594 excitation/emission spectra. […] A clathrin punctum was defined as being recruited an HER1-positive site when there was 50 nm or less distance between the clathrin and EGF puncta.
A431 cells were seeded on coverslips in 12-well plates and incubated overnight to reach 80% confluence for super-resolution microscopy based on structured illumination. After a 3 hour-serum starvation the cells were treated with 30 μM of Pitstop®-2 or 18 μM chlorpromazine for 30 min, followed by 5 min uptake with EGF-Alexa488 (100 ng/ml). The uptake of EGF was stopped by washing three times in ice cold PBS. The cells were fixed in 4% paraformaldehyde/phosphate-buffered saline for 30 min and washed three times in phosphate-buffered saline before DAPI staining for 30 min. The coverslips were mounted on slides in Prolong Gold (Life technologies) for confocal analysis or glycerol-based imaging media for three dimensional structured illumination microscopy (3D-SIM). Confocal images were acquired using a Zeiss 510 Meta confocal with a 63 Å˜ objective. Reconstructing the subsequent images after modulating the illumination pattern produces super-resolution images with double the lateral and axial resolution and up to 10 μm into the cell. 3D-SIM images were captured on a Deltavision OMX V3 Imaging System (Applied Precision), EMCCD cameras (CascadeII 512×512 Photometrics) and using a 60×1.4-NA UPlanSApo oil-immersion objective (Olympus) with oil of a refractive index of 1.518. […] Images were computationally reconstructed using Deltavision SoftWorX6.0 Beta 19 software (Applied Precision).

[3] = tested on: Cetuximab-sensitive or resistant cell lines; test: ADCC in response to Cetuximab with endocytosis inhibitors; details: either Cetuximab-sensitive or resistant cell lines
Procedure: If only the plasma membrane levels of HER1 determine ADCC response then we would expect that any pharmacological blockade of HER1 internalization would be expected to enhance ADCC. Thus, numerous endocytosis inhibitors were tested to investigate this hypothesis.

O=C(N/N=C/c1cc(O)c(O)cc1O)c1cc2ccccc2cc1O [Dyngo4a]
Toxicity of Dyngo4a [1]: non-toxic

O=C1NC(=NS(=O)(=O)c2cccc3ccccc23)S/C1=C\c1ccc(Br)cc1 [Pitstop®-2]
Internalization of EGF-Alexa488 ([2]; A431 cells): no internalization | Clathrin recruitment to the plasma membrane ([2]; A431 cells): clathrin was not recruited | Inhibition of CCV (clathrin coated vesicle) formation ([2]; A431 cells, confocal and 3D-SIM): inhibits CCV formation | Effect on HER1 (EGFR) at the plasma membrane [2]: caused HER1 to be trapped on the plasma membrane | Effect on ADCC in response to Cetuximab [3]: did not increase ADCC

CN(C)CCCN1c2ccccc2Sc2ccc(Cl)cc21 [chlorpromazine]
Internalization of EGF-Alexa488 ([2]; A431 cells): no internalization | Clathrin recruitment to the plasma membrane ([2]; A431 cells): does not inhibit clathrin recruitment | Effect on HER1 (EGFR) at the plasma membrane [2]: clustering and recruitment of HER1 into CCVs; also recorded: abundant EGFR was trapped at the cell membrane
